From US20210207153A1, “SYSTEMS AND METHODS FOR EDITING A PLANT GENOME” (PIONEER HI-BRED INTERNATIONAL, INC., priority 2018, published 2021) come the findings set out here.

One assay concerns resistant embryos. Description: ABA application and embryo partial desiccation on embryo germination frequency. It counts as cell-based, canola. As to the method: To further increase embryo germination frequency, abscisic acid (ABA) at 25 μM was added in microspore culture medium NLN-10S with 0.1 -0.2 mM glyphosate 14 days after bombardment. The resistant embryos were partially desiccated in a Petri dish for one week at 25° C. The Petri dish contained a piece of Bounty paper towel with water for maintaining moisture.

A further assay deals with microspores. As to the method:
• DNA constructs with promoter AT-UBIQ10 and glyphosate resistant gene GAT4621 were used in the following experiments. • 1. […] In developing canola transformation procedure, microspores were cultured for two days or three days in IM-17M and then cultured in NLN-10S for one day or not before bombardment.
• 2. Effect of CaC12 in IM-17M before bombardment and NLN-13S with 5 μM trifluralin on transformation efficiency • 15 mM calcium chloride was supplemented in IM-17M in microspore culture before bombardment.
It was further studied that calcium chloride was supplemented in NLN-13S with 5 μM trifluralin after bombardment on transformation efficiency.

For another assay, the system named is embryos. Put plainly: PCIB in embryo germination medium on germination frequency. It counts as cell-based, canola. As to the method: • 4. Increase embryo germination frequency • One of technical challenges in canola transformation was that embryo germination frequency was only around 20%. Antiauxin 2-(p-Chlorophenoxy)-2-methylpropionic acid (PCIB) was included in embryo germination medium BGM for inhibiting callusing. Embryo germination frequency was doubled when 0.0625-1 mg/l PCIB was added in BGM with 0.1 mM glyphosate

For assay [1], the system named is pre-incubated microspores. Description: Sucrose in osmotic medium: resistant embryo production. It counts as cell-based, Brassica. The note with it: Total of 4 reps. As to the method: The purpose of this experiment was to find the optimal concentration of sucrose in the osmotic medium. Microspores were cultured for 4-7 days using 17S/10S protocol. […] The rupture disk was 900 psi. […] The diluted cultures were incubated in the light for 2-3 weeks.

In assay [2] the test system is microspore-derived hypocotyls. Put plainly: Sucrose in osmotic medium: transient GUS expression. It counts as cell-based, Brassica. The note with it: for # with GUS: 24 hypocotyls. As to the method: Experiments 3 to 7 describe work done using microspore-derived hypocotyls. Microspores were isolated as is known to those skilled in the art and cultured in NLN medium for 21 to 28 days (Swanson et al., 1987). Hypocotyls were excised from the embryos produced from the microspores when the embryos were approximately 3-5 mm in size. Microspores of cultivar 46A65 were cultured in NLN medium for approximately 21 days. On the 21st day, the NLN medium was changed and diluted (1:20) with fresh NLN medium and the embryos were cultured for 5 more days. The hypocotyls were excised from the embryos and preconditioned overnight on MMW+BAP (4 mg/l)+NAA (0.25 mg/l). The hypocotyls were transferred to osmotic medium (for example, 17% sucrose+1% agar+1 g/l MES, pH 6.0) for 4 hours and then bombarded. The DNA construct used in bombardments was PHP 18644. After bombardment, the hypocotyls were cultured on the osmotic medium for approximately between 4 and 20 hours (for example, overnight). The bombarded hypocotyls were then cultured on MMW+BAP (4 mg/l)+kanamycin (25-50 mg/l) for bud induction. Regenerated buds were cultured on MMW+kanamycin (50-100 mg/l) or MMW+BAP (0.2 mg/l)+kanamycin (50-100 mg/l) for plant regeneration. The following experiments were done to test the effect of sucrose concentration, amount of gold particle used and the effect of rupture disk on transformation frequency.
The objective was to find the appropriate concentration of sucrose in the osmotic medium (sucrose+1% agar+1 g/l MES, pH 6.0) in order to produce the highest transformation efficiency.
GUS analysis is known to those skilled in the art. The protocol can be found in numerous references, for example Wu H, McCormac A C, Elliott M C, Chen D F (1998) Agrobacterium-mediated s table transformation of cell suspension cultures of barley (Hordeum vulgare). Plant Cell Tissue and Organ Culture 54:161-171.

In assay [3] the test system is non-transgenic microspores. Put plainly: G418 selection kill curve: embryo growth and survival in liquid medium. In kind it is cell-based, Brassica. The note with it: for # Green embryos or with green island: liquid medium. An excerpt: (§1) The objective was to determine the concentration of G418 that kills non-transgenic microspores. Prior to this experiment, selection was done on solid medium, not in liquid medium. Using liquid selection for Brassica transgenic cells is novel. Selection in liquid medium is advantageous for at least the following reasons: (a) it allows selection at an early stage, thereby eliminating the need for subsequent transfers of explants, (b) it allows for a cleaner selection because the explants are generally smaller when they are in liquid medium and the liquid allows all the surfaces of the explant to be exposed to the selection agent, (c) it may reduce the frequency of chimeras, and (d) a lower amount of the selection agent is needed therefore reducing the toxicity to the researcher and the environment. The effect of various concentrations of kanamycin on embryo growth in liquid medium was tested. […] Accordingly, it was difficult to discriminate transgenic tissue or embryos from non-transgenic.

Assay [4] deals with pre-incubated microspores. Description: Glyphosate resistant embryo selection after bombarding pre-incubated microspores. In kind it is cell-based, Brassica. As to the method: Experiments 8 to 17 describe the work done using pre-incubated microspores. The microspores were cultured in NLN-17S/10S for 2-10 days. Optimally, the microspores are cultured for 5-7 days. Embryos could not be detected with the naked eye. The embryogenic microspores were collected so that they remain viable and embryogenic with a Nitex™ sieve (15-36 um in pore size) or Percoll® (35-45%) gradient centrifugation. Pre-incubated microspores were used as bombarded materials. Any Brassica line that is capable of regenerating by microspore culture can be used. The microspores were cultured for 1-3 days in NLN-17S at 31.5° C., and then in NLN-10S for 4-5 days at 25° C. The constructs used in the bombardments were PHP18644, PHP21965, PHP22024, PHP22021, and PHP23560 (see Table 9). The constructs can be the full plasmid or the expression cassette only. For example, PHP22024 can be either the expression cassette or the full plasmid. The pre-incubated microspores were filtrated with sieves of pore size of 15 μm to 36 μm. The collected microspores were used for bombardment. The microspores were loaded on a sieve 15 μm or 20 μm on two layers of filter-paper and dried for less than one minute. […] Resistant embryos were recorded after two to three weeks of culture. […]

Assay [5] has as its system non-bombarded and bombarded embryos. Description: Effect of kanamycin on embryo growth in liquid medium. In kind it is cell-based, Brassica.
Description: as §1

[6] abbreviates: ABA 25 μM plus partial desiccation.
[7] abbreviates: 15 mM CaCl2 in IM-17M before bombardment, 24 shots.

Values joined by “and” are separate entries in the source; they are usually repeats but may differ in a detail not shown here. Identical values can stand only once. Counter-ions that a name gives are not always drawn. Like-named read-outs stand apart in the source and are kept apart here.

For `CC1=CC(=O)CC(C)(C)[C@@]1(O)/C=C/C(C)=C\C(=O)O` [ABA, abscisic acid], the Total shoots in the assay on resistant embryos (ABA 25 μM in NLN-10S 14 days after bombardment plus partial desiccation one week, 479 embryos) amounted to 338. Moreover, in the assay on resistant embryos (setting [6]), the Germination worked out at 76.6% and the “embryo germination frequency, change” value is on record as “significantly increased”.
On to `[Ca+2].[Cl-].[Cl-]` [CaCl2, calcium chloride], for which the “# embryos” value in the assay on microspores (setting [7]) is 574; in the assay with microspores (CaCl2 0 mM in IM-17M, 10 mM in NLN-13S + trifluralin, 15 shots), 169; in the assay on microspores (CaCl2 0 mM in IM-17M, 20 mM in NLN-13S + trifluralin, 19 shots), 300; with microspores (CaCl2 15 mM in IM-17M, 0 mM in NLN-13S + trifluralin, 22 shots) it was 139. Moreover, the Embryos/shot in the assay with microspores (setting [7]) stood at 23.9; in the assay with microspores (CaCl2 0 mM in IM-17M, 10 mM in NLN-13S + trifluralin) it was 11; with microspores (CaCl2 0 mM in IM-17M, 20 mM in NLN-13S + trifluralin) it was 16; in the assay with microspores (CaCl2 15 mM in IM-17M, 0 mM in NLN-13S + trifluralin) it was 6.
Consider `CC(C)(Oc1ccc(Cl)cc1)C(=O)O` [PCIB, 2-(p-Chlorophenoxy)-2-methylpropionic acid], for which the “embryo germination frequency, change” value in the assay on embryos (0.0625-1 mg/l PCIB in BGM with 0.1 mM glyphosate) is reported as “doubled”. Moreover, the Germination frequency came to 44% in the assay on embryos (PCIB 0.0625 mg/l); 43% in the assay on embryos (PCIB 0.125 mg/l); 50% in the assay on embryos (PCIB 0.25 mg/l); 44% with embryos (PCIB 0.5 mg/l); 44% with embryos (PCIB 1 mg/l). Moreover, the “# plantlets” value in the assay with embryos (PCIB 0.0625 mg/l in BGM with 0.1 mM glyphosate, 63 embryos) turned out to be 28; in the assay with embryos (PCIB 0.125 mg/l, 72 embryos) it was 31; in the assay on embryos (PCIB 0.25 mg/l, 72 embryos) it was 36; with embryos (PCIB 0.5 mg/l, 63 embryos), 28; in the assay on embryos (PCIB 1 mg/l, 81 embryos) it was 36.
With `OC[C@H]1O[C@@](CO)(O[C@H]2O[C@H](CO)[C@@H](O)[C@H](O)[C@H]2O)[C@@H](O)[C@@H]1O` [Sucrose, sucrose], the Resistant embryos/plate was 2.5 in assay [1] (17% sucrose) and 2.1 in assay [1] (19% sucrose). Also, the “# spots/hypocotyls” value in assay [2] (15% sucrose) is on record as 9.8; in assay [2] (17% sucrose), 10.1; in assay [2] (19% sucrose) it was 19.8; in assay [2] (21% sucrose) it was 16.7. Also, the “# total spots” value is on record as 236 in assay [2] (15% sucrose), 242 in assay [2] (17% sucrose), 475 in assay [2] (19% sucrose) and 400 in assay [2] (21% sucrose). The “# with GUS” value in assay [2] (15% sucrose) turned out to be 23; in assay [2] (17% sucrose), 23; in assay [2] (19% sucrose), 23; in assay [2] (21% sucrose) it was 24.
Regarding `CN[C@@H]1[C@@H](O)[C@@H](O[C@@H]2[C@@H](O)[C@H](O[C@H]3O[C@H]([C@@H](C)O)[C@@H](O)[C@H](O)[C@H]3N)[C@@H](N)C[C@H]2N)OC[C@]1(C)O` [Variant G418, G418 disulfate salt], the “# Green embryos or with green island” value is 30 and 28 in assay [3] (G418 1.25 mg/l, disulfate salt); 14 and 11 in assay [3] (G418 2.5 mg/l, disulfate salt); 0 in assay [3] (G418 5 mg/l); 0 in assay [3] (G418 10 mg/l). Besides, the “concentration sufficient to differentiate transformed cells from untransformed cells” value in assay [3] (NLN with 6.5% sucrose medium) fell in the range of 5 to 10 mg/L.
On to `O=C(O)CNCP(=O)(O)O` [glyphosate], for which the “identification of resistant embryos” value in assay [4] (glyphosate 0.1 mM or 0.2 mM) is on record as “allowed identification of resistant embryos”. Also, the selection efficiency result in assay [4] (glyphosate 0.2 mM versus 0.1 mM) is “fewer false positive results”.
For `NC[C@H]1O[C@H](O[C@H]2[C@H](O)[C@@H](O[C@H]3O[C@H](CO)[C@@H](O)[C@H](N)[C@H]3O)[C@H](N)C[C@@H]2N)[C@H](O)[C@@H](O)[C@@H]1O` [kanamycin], in assay [5], the “concentration sufficient to bleach non-bombarded embryos and inhibit non-bombarded embryo growth” value came out at 10 mg/L.
